According to patent US20230364101A1, “DICLOFENAC PRODRUG AND USE OF THE SAME” (Pumont Biotech Co., Ltd., priority 2022, published 2023):
Values after ≈ are worked out from the molar mass of the structure shown.

Tests used:
[1] = Solubility test using potassium phosphate buffer at pH 7.4; type: physicochemical; settings: 5 mg prodrug in 10 mL potassium phosphate buffer pH 7.4, 37° C., HPLC-UV 254 nm; for solubility at 24 h: potassium phosphate buffer, 37 °C, pH 7.4, aqueous buffer, thermodynamic from solid, read-out: Solubility after 24 hours
Experimental: First, a respective one of the diclofenac prodrugs of EX5 to EX8 and EX12 was mixed with a potassium phosphate buffer (including 50 mM potassium phosphate, sodium chloride, and water; pH 7.4) and then placed in a constant temperature oscillator at 37° C. for 24 hours so as to dissolve the diclofenac prodrug, thereby obtaining a test sample. After that, the test sample was filtered through a filter having a pore size of 0.22 μm to obtain a filtrate. Next, the filtrate was mixed with acetonitrile in equal amounts, and then subjected to oscillation and centrifugation performed in sequence. The resultant supernatant fraction was subjected to HPLC with UV detection under a wavelength of 254 nm.

[2] = Determination of particle size (D90) after grinding; type: physicochemical; settings: after grinding with mortar and homogenizer in 0.125 wt % Tween 20; initial particle size about 60 μm
Source text: The solid particles of the diclofenac prodrugs of EX5 and EX8 were subjected to grinding in order to be formulated into a soluble liquid suspension suitable for intraarticular injection. In general, first, the solid particles of diclofenac prodrugs and deionized water were mixed to form a liquid suspension. Next, the liquid suspension was ground using a homogenizer and then subjected to oscillation treatment to obtain a test sample. Then, the test sample was subjected to determination of particle size distribution. Afterwards, the test sample includes solid particles having a size ranging from 20 μm to 30 μm was centrifuged and lyophilized, followed by determination of purity using HLPC. […]
(§1) To be specific, 100 mg of the diclofenac prodrug of EX5 having an initial particle size of about 60 μm was manually ground using a mortar, and then mixed with 2.0 mL of an aqueous solution containing 0.125 wt % of Tween 20 and deionized water, so as to obtain a slurry. […] The thus determined average particle size D90 of the diclofenac prodrug of EX5 was 8.4 μm.
as §1, with “Meanwhile, 102” for “To be specific, 100”, “EX8” for “EX5”, “saline,” for “deionized water,”, “18.2” for “8.4”

Row | solubility at 24 h [1] [µg/mL] | SMILES | Solubility after 24 hours [1] [µg/mL] | Solubility after 24 hours ([1]; listed as EX5 (crystalline)) [µg/mL] | average particle size D90 [2] [μm]
1 | 0.33 (≈ 0.681 µM) | CC1(C)OCC(COC(=O)OCOC(=O)Cc2ccccc2Nc2c(Cl)cccc2Cl)O1 (stereo not shown) [EX6, ((((2,2-dimethyl-1,3-dioxolan-4-yl)methoxy)carbonyl)oxy)methyl 2-(2-((2,6-dichlorophenyl)amino)phenyl)acetate] | – | – | –
2 | 269 (≈ 604 µM) | O=C(Cc1ccccc1Nc1c(Cl)cccc1Cl)OCOC(=O)OCC(O)CO (stereo not shown) [EX7, (((2,3-dihydroxypropoxy)carbonyl)oxy)methyl 2-(2-((2,6-dichlorophenyl)amino)phenyl)acetate] | – | – | –
3 | 28.4 (≈ 66.4 µM) | O=C(Cc1ccccc1Nc1c(Cl)cccc1Cl)OCOC(=O)OCCCO [EX8, (((3-hydroxypropoxy)carbonyl)oxy)methyl 2-(2-((2,6-dichlorophenyl)amino)phenyl)acetate] | – | – | 18.2

The next lines start with the compound.

Row | SMILES | solubility at 24 h [1] [µg/mL] | Solubility after 24 hours [1] [µg/mL] | Solubility after 24 hours ([1]; listed as EX5 (crystalline)) [µg/mL] | average particle size D90 [2] [μm]
4 | O=C(Cc1ccccc1Nc1c(Cl)cccc1Cl)OCOC(=O)N1CCOCC1 [EX5 (amorphous), (2-(2-((2,6-dichlorophenyl)amino)phenyl)acetoxy)methyl morpholine-4-carboxylate] | – | 4.24 (≈ 9.65 µM) | – | –
5 | O=C(Cc1ccccc1Nc1c(Cl)cccc1Cl)OCOC(=O)N1CCOCC1 [EX5, (2-(2-((2,6-dichlorophenyl)amino)phenyl)acetoxy)methyl morpholine-4-carboxylate] | – | – | 0.06 (≈ 0.137 µM) | 8.4
